Measurements: patent US7906504B2, “2-(1-oxo-1H-isoquinolin-2-yl)acetamide derivatives” (N.V. Organon, priority 2006, dated 2011)

Experiments:
[1] = biological target: T1, V3 receptor (Rattus norvegicus, UniProt P48974); assay: Block of AVP-induced ACTH release from isolated rat anterior pituitary corticotrophs; assay type: cell-based; conditions: ACTH release after 3x10^-9 mol/L AVP for 120 minutes; ELISA; read-out: V3 receptor antagonism in isolated rat anterior pituitary cells
T1 construct: Anterior pituitary corticotrophs were prepared from adult female Sprague-Dawley rats; endogenous in cells; host or cells: primary anterior pituitary corticotrophs from adult female Sprague-Dawley rats
T1 sequence (P48974 1-425): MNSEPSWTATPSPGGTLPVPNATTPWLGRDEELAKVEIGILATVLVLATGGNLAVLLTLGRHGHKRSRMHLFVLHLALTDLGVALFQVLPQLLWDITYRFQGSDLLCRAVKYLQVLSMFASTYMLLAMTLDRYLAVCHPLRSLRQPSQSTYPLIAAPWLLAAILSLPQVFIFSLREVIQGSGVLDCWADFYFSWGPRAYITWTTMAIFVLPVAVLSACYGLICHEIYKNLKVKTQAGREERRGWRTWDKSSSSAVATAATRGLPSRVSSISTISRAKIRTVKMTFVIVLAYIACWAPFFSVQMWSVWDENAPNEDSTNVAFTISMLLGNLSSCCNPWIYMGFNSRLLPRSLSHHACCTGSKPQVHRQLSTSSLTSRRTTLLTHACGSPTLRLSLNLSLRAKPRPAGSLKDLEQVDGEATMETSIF
Description: The ability of compounds of the invention to act as V3 antagonists in a physiologically relevant system was determined by measuring their ability to block the release of adrenocorticotropic hormone (ACTH) from anterior pituitary corticotrophs in response to treatment with arginine vasopressin (AVP).
Anterior pituitary corticotrophs were prepared from adult female Sprague-Dawley rats and seeded into 48 well plates. The cells were cultured for 4 days prior to exposure to compound. Test compounds were prepared at 10^−5 mol.L^−1 in 100% DMSO. Cells were exposed to a dose response of test compounds for 20 minutes (10^−8 mol.L^−1−10^−5 mol.L^−1). The final concentration of DMSO in the assay was kept constant at 0.3%. The cells were then exposed to 3×10^−9 mol.L^−1 AVP for 120 minutes. Supernatants were harvested and stored at −20° C. ACTH levels were subsequently measured by ELISA following the manufacturer's instructions (Immunodiagnostic systems, UK (Cat No. DX-SDX018)). Each treatment was carried out in quadruplicate and a mean value obtained for the amount of ACTH released. The degree of antagonism was then calculated as a percentage of the amount of ACTH released by agonist alone after adjustment for basal levels of ACTH. A pIC50 was calculated by fitting a Sigmoidal dose response (variable slope) curve with a non-linear (fit) to the data using the software package GraphPad prism. […]

[2] = biological target: T2, human V3 receptor (Homo sapiens, UniProt P47901); assay: [3H]AVP binding to CHO cells stably expressing the human V3 receptor; conditions: [3H]AVP 2.5x10^-9 mol/L
T2 construct: expressed in transfected cells
T2 sequence (P47901 1-424): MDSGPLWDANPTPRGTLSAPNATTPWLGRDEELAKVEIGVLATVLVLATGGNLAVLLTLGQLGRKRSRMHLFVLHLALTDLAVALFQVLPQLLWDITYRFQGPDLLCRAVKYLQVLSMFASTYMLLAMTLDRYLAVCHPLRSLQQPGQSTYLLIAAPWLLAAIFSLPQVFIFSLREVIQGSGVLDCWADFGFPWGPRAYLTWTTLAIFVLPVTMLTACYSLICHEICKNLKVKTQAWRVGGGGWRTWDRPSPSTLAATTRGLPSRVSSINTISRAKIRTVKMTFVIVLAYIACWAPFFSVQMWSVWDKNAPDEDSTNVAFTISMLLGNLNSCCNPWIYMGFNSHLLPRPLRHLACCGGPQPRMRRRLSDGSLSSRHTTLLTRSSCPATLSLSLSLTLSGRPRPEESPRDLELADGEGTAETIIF
Description: Chinese Hamster Ovary (CHO) cells stably expressing the human V3 receptor were incubated to equilibrium with the test compound (at a final assay concentration of 10^−10 mol.L^−1 to 10^−5 mol.L^−1) and [^3H]AVP (at a final assay concentration of 2.5×10^−9 mol.L^−1). […] After washing with ice-cold phosphate buffered saline (PBS), scintillation fluid was added and the plates counted on a Topcount NXT apparatus.
A sigmoidal dose response curve (non-linear regression, variable slope) was plotted as concentration of test compound (mol.L^−1) against percentage specific binding of [^3H]AVP and a Ki value was calculated. Each determination was carried out in triplicate and repeated on at least 3 separate occasions

Row | Structure (SMILES) | IC50 [1] [nM] | Ki [2] [nM]
1 | CC(C)NC(=O)Cn1c(-c2cccc(Cl)c2)cc2ccc(OC[C@@H](C)CN3CCCC3)cc2c1=O [EXAMPLE 1, 2-[3-(3-Chlorophenyl)-7-((S)-2-methyl-3-pyrrolidin-1-ylpropoxy)-1-oxo-1H-isoquinolin-2-yl]-N-isopropylacetamide] | 100 to 1000 | –
2 | COc1cccc(-c2cc3ccc(OC[C@@H](C)CN4CCCCC4)cc3c(=O)n2CC(=O)NC(C)C)c1 [EXAMPLE 14, N-Isopropyl-2-[3-(3-methoxyphenyl)-7-((S)-2-methyl-3-piperidin-1-ylpropoxy)-1-oxo-1H-isoquinolin-2-yl]acetamide] | – | 100 to 1000
3 | CC(C)(C)NC(=O)Cn1c(-c2cccc(Cl)c2)cc2ccc(OCCCN3CCC(O)CC3)cc2c1=O [EXAMPLE 17, N-tert-Butyl-2-{3-(3-Chlorophenyl)-7-[3-(4-hydroxypiperidin-1-yl)-propoxy]-1-oxo-1H-isoquinolin-2-yl}-acetamide] | 10 to 100 | –
4 | CC(C)(C)NC(=O)Cn1c(-c2ccc(F)c(Cl)c2)cc2ccc(OCCCN3CCCC3)cc2c1=O [EXAMPLE 28, N-tert-Butyl-2-[3-(3-chloro-4-fluorophenyl)-1-oxo-7-(3-pyrrolidin-1-ylpropoxy)-1H-isoquinolin-2-yl]acetamide] | – | 100 to 1000
5 | CC(C)NC(=O)Cn1c(-c2cccc(Cl)c2)cc2ccc(-c3cccc(CN4CCCCC4)c3)cc2c1=O [EXAMPLE 35, 2-[3-(3-Chlorophenyl)-1-oxo-7-(3-piperidin-1-ylmethylphenyl)-1H-isoquinolin-2-yl]-N-isopropylacetamide] | – | 10 to 100

Results, then the compound that gave them:

Row | IC50 [1] [nM] | Ki [2] [nM] | Structure (SMILES)
6 | – | 10 to 100 | CC(C)NC(=O)Cn1c(-c2cccc(F)c2)cc2ccc(OC[C@@H](C)CN(C)C)cc2c1=O [EXAMPLE 3, 2-[7-((S)-3-Dimethylamino-2-methylpropoxy)-3-(3-fluorophenyl)-1-oxo-1H-isoquinolin-2-yl]-N-isopropylacetamide]
7 | – | 10 to 100 | COc1cccc(-c2cc3ccc(OCCCN4CCCC4)cc3c(=O)n2CC(=O)NC(C)(C)C)n1 [EXAMPLE 23, N-tert-Butyl-2-[3-(6-methoxypyridin-2-yl)-1-oxo-7-(3-pyrrolidin-1-ylpropoxy)-1H-isoquinolin-2-yl]acetamide]
8 | – | < 10 | CC(C)NC(=O)Cn1c(-c2ccccc2)cc2ccc(OCCCN3CCCCC3)cc2c1=O [EXAMPLE 26, N-Isopropyl-2-[1-oxo-3-phenyl-7-(3-piperidin-1-ylpropoxy)-1H-isoquinolin-2-yl]acetamide]
